Data on 2 molecules can be found in patent US6346541B1, “Cyanoguanidines as cell proliferation inhibitors” (Leo Pharmaceutical Products Ltd. A/S, priority 1997, dated 2002).

What all share (type): cell-based
Assay [1] has as its system human breast cancer (MCF-7) cell line. Nature of the assay: Inhibition of tumour cell proliferation in vitro ([3H]thymidine incorporation), MCF-7. The following applies: MCF7, MCF-7 cells, cultured 24 hours with compound, DNA synthesis by [3H]thymidine incorporation. On the procedure: (§1) The inhibition of tumour cell proliferation was studied using different types of human cancer cell lines. The cell lines under investigation were small cell lung carcinoma (NYH), non small cell lung carcinoma (NCI-H460), and breast cancer (MCF-7) using the following general procedure:
(§2) The cells were cultured in vitro for 24 hours in the presence of the compound under investigation. DNA synthesis was measured by incorporation of [3H]thymidine, and the median inhibitory concentrations (IC50) of the compounds were calculated.

In assay [2] the test system is human small cell lung carcinoma (NYH) cell line. Nature of the assay: Inhibition of tumour cell proliferation in vitro ([3H]thymidine incorporation), NYH. Conditions: NYH cells, cultured 24 hours with compound, DNA synthesis by [3H]thymidine incorporation. The protocol:
as §1, §2
A general note: Uptake of a labelled nucleoside into DNA is a usual measure of proliferation.

The test system of assay [3] is human non small cell lung cancer (NCI-H460) cell line. The experiment in a line: Inhibition of tumour cell proliferation in vitro ([3H]thymidine incorporation), NCI-H460. Conditions: NCI-H460 cells, cultured 24 hours with compound, DNA synthesis by [3H]thymidine incorporation. The protocol:
as §1, §2

Take `N#CNC(=Nc1ccncc1)NCCCCCCNC(=O)c1ccccc1` [Example No. 2, N-(6-Benzoylaminohexyl)-N′-cyano-N″-4-pyridylguanidine]: the IC50 in assay [1] was found to be 57 nM; in assay [2], 6.2 nM; in assay [3] it was 66 nM.
In the case of `N#CNC(=Nc1ccncc1)NCCCCCCOC(=O)c1ccc(Cl)cc1` [Example No. 4, N-(6-(4-Chlorobenzoyloxy)hexyl)-N′-cyano-N″-4-pyridylguanidine], the half-inhibitory concentration (IC50) in assay [1] came out at 2.2 nM; in assay [2], 1.7 nM.

By IC50 is commonly meant the concentration at which inhibition is half-maximal.
